Assay results from patent US20260191843A1, “METHODS AND MATERIALS FOR TREATING BURNS” (The Penn State Research Foundation, priority 2022, published 2026).
Entries after “also recorded” stand apart in the source; their conditions may differ.

Legend:
[1] = test system: deep-partial thickness burn wound on the mouse dorsum; test: Morphometric burn wound healing assessment at day 26 (H&E and Masson's trichrome staining); assay type: in vivo, wild-type C57BL/6 mouse
Method: Place the 8-10-week-old wild-type C57BL/6 mouse on its side on a sterile paper sheet. Anesthesia was achieved and maintained with isoflurane utilizing an induced with an intraperitoneal injection of ketamine (60 mg/kg) and xylazine (4 mg/kg). An adequate depth of anesthesia was ensured via lack of a withdrawal reflex when a toe pinch was performed. The depth of anesthesia was monitored as well as respiration and mucous membrane color (pink: normal, pale: blood loss, blue: cyanosis). The surgeon(s) used sterile gloves, mask and a clean lab coat. Sterile surgical instruments (autoclaved) were used during all survival surgeries. The skin was prepared for creation of wound on the dorsal and side skin (from neck to tail) by shaving with a mechanical shaver and then applying a hair removal cream on the skin for 3-5 minutes. Hair was removed completely by gently wiping the skin with cotton balls soaked in warm water. Skin disinfection around the incision site was done using 70% ethanol and betadine for 3 times. Then, the dorsal skin was folded and raised cranially and caudally at the midline using index fingers and thumbs, and the animal was placed in a lateral position. The burn wound was created by contacting a 10 mm diameter brass heating device maintained at 100° C. to the mouse dorsum at a constant pressure. The device remained in contact with the skin for 4 seconds in order to create a deep-partial thickness burn. After burn wound creation, the wound site was photographed, the wound area was circled using permanent pen marker, and the wound surface was covered with a TEGADERM™ (3M) sterile transparent dressing. After surgery, mice were given SR Buprenorphine (0.05 mg/kg) for post-operative analgesia. Then, mice were placed in a clean cage on the heating pad for 30 minutes to help the recovery process. Immediately after the recovery, mice were randomly grouped and treated with either with 4-AP (systemic, ip) or saline (control). […]

[2] = test system: deep-partial thickness burn wound on the mouse dorsum; test: Burn wound healing in mice: wound area and percentage of wound closure; assay type: in vivo, wild-type C57BL/6 mouse
Method: Place the 8-10-week-old wild-type C57BL/6 mouse on its side on a sterile paper sheet. Anesthesia was achieved and maintained with isoflurane utilizing an induced with an intraperitoneal injection of ketamine (60 mg/kg) and xylazine (4 mg/kg). An adequate depth of anesthesia was ensured via lack of a withdrawal reflex when a toe pinch was performed. The depth of anesthesia was monitored as well as respiration and mucous membrane color (pink: normal, pale: blood loss, blue: cyanosis). The surgeon(s) used sterile gloves, mask and a clean lab coat. Sterile surgical instruments (autoclaved) were used during all survival surgeries. The skin was prepared for creation of wound on the dorsal and side skin (from neck to tail) by shaving with a mechanical shaver and then applying a hair removal cream on the skin for 3-5 minutes. Hair was removed completely by gently wiping the skin with cotton balls soaked in warm water. Skin disinfection around the incision site was done using 70% ethanol and betadine for 3 times. Then, the dorsal skin was folded and raised cranially and caudally at the midline using index fingers and thumbs, and the animal was placed in a lateral position. The burn wound was created by contacting a 10 mm diameter brass heating device maintained at 100° C. to the mouse dorsum at a constant pressure. The device remained in contact with the skin for 4 seconds in order to create a deep-partial thickness burn. After burn wound creation, the wound site was photographed, the wound area was circled using permanent pen marker, and the wound surface was covered with a TEGADERM™ (3M) sterile transparent dressing. After surgery, mice were given SR Buprenorphine (0.05 mg/kg) for post-operative analgesia. Then, mice were placed in a clean cage on the heating pad for 30 minutes to help the recovery process. Immediately after the recovery, mice were randomly grouped and treated with either with 4-AP (systemic, ip) or saline (control).
Functional analysis of the burn wound area was performed by placing a transparent sheet on the surface of the circled wound, and placing a ruler close to the burn wound to capture photographs of individual wounds on 0, 3, 7, 10, 14, 18, 21, and 26 days. The wound size of each individual mice was measured and compared to zero day wound diameter from the circled sheet. The percentage of wound closure was calculated using this formula: (area of original wound-area of the actual burn wound)/area of original burn wound×100.

[3] = 4-AP treated vs saline-treated mice

Question: What does the source list for `Nc1ccncc1` [4-AP, 4-aminopyridine]?
Answer: collagen deposition in the healing wound (Masson's Trichrome) [1, 3]: elevated collagen deposition; thickness of newly formed epidermis within the healed wound (H&E) [1, 3]: significantly thicker; re-epithelialization ([1]; not completed in saline-treated mice): re-epithelialization was complete; acceleration of wound closure ([2]; by day 3, systemic 4-AP vs saline, P between 0.01 and 0.05): significant increase in wound closure by day 3; also recorded: accelerated wound closure by day 3; closed wounds ([2]; by day 26, systemic 4-AP): closed wounds by day 26; reduced wound area (relative to initial wound area) ([2]; day 5, systemic (ip) 4-AP, saline treated animals showed 25% expansion of wound area): 5%; protection from expansion of wound size (necrosis and apoptosis at zone of stasis) ([2]; systemic 4-AP vs saline): significant burn wound protection from expansion of wound; also recorded: significantly prevented expansion of wound size; burn wound closure and tissue regeneration as compared to control animals ([2]; systemic 4-AP vs systemic saline): improved burn wound closure and tissue regeneration
